This is an account of results in patent US20240092784A1, “CONDENSED HETEROCYCLIC COMPOUND” (NISSAN CHEMICAL CORPORATION, priority 2020, published 2024).

pIC50: −log10 of the molar value. Where a name gives a salt, the structure may show the parent alone.

Sequence of human SPR (P35270 whole entry): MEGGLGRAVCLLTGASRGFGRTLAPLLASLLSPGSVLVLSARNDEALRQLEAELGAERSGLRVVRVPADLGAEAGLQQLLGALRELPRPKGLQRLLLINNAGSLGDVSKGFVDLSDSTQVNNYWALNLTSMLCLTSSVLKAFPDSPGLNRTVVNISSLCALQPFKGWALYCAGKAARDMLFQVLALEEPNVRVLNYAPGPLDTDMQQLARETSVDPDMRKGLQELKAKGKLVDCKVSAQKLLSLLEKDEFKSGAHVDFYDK

The first assay addresses human SPR (Homo sapiens (Human), UniProt P35270). The experiment in a line: Evaluation Example 2: Measurement of human SPR inhibitory activity (seven concentrations, sepiapterin absorbance at 420 nm). The conditions noted are these: Evaluation Example 2, seven concentrations 0.14 nM to 100 nM, 240 minutes at room temperature, read-out: IC50. The assay is classed as biochemical. As for the experimental part:
Human SPR was prepared as described below. The full-length human SPR (1-261) cDNA was purchased from Eurofins Genomics as an artificially synthesized plasmid containing a DNA sequence optimized for the E. coli expression system so that the sequence of the expressed protein after transcription and translation matches the sequence described in UniprotKB (P35270).
Linearized insert and vector were prepared by PCR using primers designed for amplification of human SPR cDNA and primers designed to contain the thrombin recognition sequence of pET28a (Novagen) and a polyhistidine tag. Cloning was performed using In-Fusion (registered trademark) HD Cloning Kit (TaKaRa) to thereby construct a human SPR expression plasmid. The resultant human SPR expression plasmid was transformed into BL21 (DE3) competent cells (INVITROGEN).
The cells were inoculated into LB medium (1% triptone, 0.5% yeast extract, 1% sodium chloride) containing […] of kanamycin, and then precultured at 37° C. overnight. The precultured cells were inoculated into TB medium (1.2% triptone, 2.4% yeast extract, 9.4% dipotassium hydrogen phosphate, 2.2% potassium dihydrogen phosphate, 0.8% glycerin) containing […] of kanamycin, and the cultured at 37° C., to thereby induce SPR expression with 0.5 mM IPTG for four hours. After the induction, the cells were collected by centrifugation at 6,000 G for 30 minutes and washed with PBS, and the washing was discarded. The washed cells were suspended in buffer solution A (20 mM MES, pH 6.5, 100 mM sodium chloride, 1 mM DTT, 5 mM imidazole). Subsequently, the cell suspension was subjected to ultrasonic treatment to thereby homogenize the cells. The cell homogenate was clarified by centrifugation at 30,000 G for 60 minutes and then filtered with a […]. The filtrate was allowed to pass through HisTrapFF 5 mL column (GE Healthcare). The resin was washed with buffer A, and then gradient elution was performed with buffer B (20 mM MES, pH 6.5, 100 mM sodium chloride, 1 mM DTT, 500 mM imidazole). Thrombin was added to a fraction containing the SPR protein, and the mixture was dialyzed in buffer A overnight, to thereby cleave the tag. After removal of the thrombin by with Benzamidine Sepharose 4 FF (GE Healthcare), the resultant product was allowed to pass through the HisTrapFF 5 mL column, to thereby remove the tag, followed by concentration with Amicon Ultra 10,000 NMWL (Merck Millipore). The concentrate was purified by gel filtration using HiLoad 16/60 Superdex 75 pg (GE Healthcare) equilibrated with buffer C (20 mM MES, pH 6.5, 100 mM sodium chloride, 1 mM DTT). The fraction containing SPR protein was concentrated and then cryopreserved at −80° C.
Human SPR inhibitory activity was measured by using a 384-well low adsorption clear plate (Greiner) with buffer D containing 100 mM Tris-HCl (pH 7.5) (Thermo Fisher Scientific) and 0.01% bovine serum albumin (Sigma). A compound was diluted with DMSO to achieve seven different final concentrations; i.e., 0.14 nM, 0.41 nM, 1.23 nM, 3.7 nM, 11.1 nM, 33 nM, and 100 nM. A 1.5 μL aliquot of the compound solution prepared with DMSO was diluted with 250 μL of buffer D, and the thus-diluted solution was dispensed into the 384-well plate at 20 μL/well. Thereafter, human SPR was diluted with buffer D to 150 ng/mL and then dispensed into the 384-well plate at 20 μL/well. Subsequently, 40 μL of ultrapure water containing 120 μM sepiapterin (produced by the method described in L-Sepiapterin, Heterocycles, 2008, 76, 1329-1335 and WO 2013/168693) and 160 μM NADPH (Nacalai) was added to each well, and then reaction was initiated. The reaction mixture was incubated at room temperature for 240 minutes. Thereafter, in order to determine the amount of sepiapterin, the absorbance at 420 nm was measured by applying the 384-well plate to EnSpire multimode plate reader (Perkin Elmer). The percent inhibition (%) of human SPR by the test compound was calculated by the following formula.
`CC(C)Cn1c(=O)c(C(=O)NC2CC2)c(O)n2ncc(/C=C/C(=O)N3CCC(F)(F)CC3C)c12` (racemic) [compound 546, (E)-N-Cyclopropyl-3-(3-(4,4-difluoro-2-methylpiperidin-1-yl)-3-oxoprop-1-en-1-yl)-7-hydroxy-4-isobutyl-5-oxo-4,5-dihydropyrazolo[1,5-a]pyrimidine-6-carboxamide (racemate)]: the pIC50 is 9.11.

For the compound `CC(C)Cn1c(=O)c(C(=O)NCC(F)(F)F)c(O)n2ncc(/C=C/C(=O)N3CCOCC3)c12` [compound 552, (E)-7-Hydroxy-4-isobutyl-3-(3-morpholino-3-oxoprop-1-en-1-yl)-5-oxo-N-(2,2,2-trifluoroethyl)-4,5-dihydropyrazolo[1,5-a]pyrimidine-6-carboxamide], the pIC50 was 9.06.

With `Cc1nn2c(O)c(C(=O)NC3CC3)c(=O)n(CC(C)C)c2c1/C=C/C(=O)N1CCN(C2CC(F)(F)C2)CC1` [Synthesis Example 615, (E)-N-Cyclopropyl-3-(3-(4-(3,3-difluorocyclobutyl)piperazin-1-yl)-3-oxoprop-1-en-1-yl)-7-hydroxy-4-isobutyl-2-methyl-5-oxo-4,5-dihydropyrazolo[1,5-a]pyrimidine-6-carboxamide], the pIC50 is 8.85.

For the compound `CC(C)Cn1c(=O)c(C(=O)NC2CC2)c(O)n2ncc(/C=C/C(=O)N3[C@@H](C)CC[C@@H]3C)c12` [compound 591, N-Cyclopropyl-3-((E)-3-((2S,5S)-2,5-dimethylpyrrolidin-1-yl)-3-oxoprop-1-en-1-yl)-7-hydroxy-4-isobutyl-5-oxo-4,5-dihydropyrazolo[1,5-a]pyrimidine-6-carboxamide], the pIC50 is 8.89.

For the compound `CC(C)Cn1c(=O)c(C(=O)NC2CC2)c(O)n2ncc(/C=C/C(=O)N3CCC[C@H]3C(F)(F)F)c12` [compound 484, (S,E)-N-Cyclopropyl-7-hydroxy-4-isobutyl-5-oxo-3-(3-oxo-3-(2-(trifluoromethyl)pyrrolidine-1-yl)prop-1-en-1-yl)-4,5-dihydropyrazolo[1,5-a]pyrimidine-6-carboxamide], the pIC50 was 8.92.

`CC(C)Cn1c(=O)c(C(=O)NC2CC2)c(O)n2ncc(/C=C/C3=NCC(C)(C)O3)c12` [Synthesis Example 266, (E)-N-Cyclopropyl-3-(2-(5,5-dimethyl-4,5-dihydrooxazol-2-yl)vinyl)-7-hydroxy-4-isobutyl-5-oxo-4,5-dihydropyrazolo[1,5-a]pyrimidine-6-carboxamide]: the pIC50 was 8.80.

With `CC(C)Cn1c(=O)c(C(=O)NC2CC2)c(O)n2ncc(/C=C/C(=O)N3CCOC[C@H]3C)c12` [compound 494, (R,E)-N-Cyclopropyl-7-hydroxy-4-isobutyl-3-(3-(3-methylmorpholino)-3-oxoprop-1-en-1-yl)-5-oxo-4,5-dihydropyrazolo[1,5-a]pyrimidine-6-carboxamide], the pIC50 was 9.14.

Turning to `CC(C)Cn1c(=O)c(C(=O)NC2CC2)c(O)n2ncc(/C=C/C(=O)N3CCC4CC43)c12` (racemic) [compound 588, (E)-3-(3-(2-Azabicyclo[3.1.0]hexan-2-yl)-3-oxoprop-1-en-1-yl)-N-cyclopropyl-7-hydroxy-4-isobutyl-5-oxo-4,5-dihydropyrazolo[1,5-a]pyrimidine-6-carboxamide (racemate)], the pIC50 is 8.80.

In the case of `Cc1nn2c(O)c(C(=O)NC3CC3)c(=O)n(CC(C)C)c2c1/C=C/C(=O)N(C)Cc1cnccn1` [Synthesis Example 636, (E)-N-Cyclopropyl-7-hydroxy-4-isobutyl-2-methyl-3-(3-(methyl(pyrazin-2-ylmethyl)amino)-3-oxoprop-1-en-1-yl)-5-oxo-4,5-dihydropyrazolo[1,5-a]pyrimidine-6-carboxamide], the pIC50 is 8.83.

As for `CC(C)(C)Cn1c(=O)c(C(=O)NC2CC2)c(O)n2nc3c(c12)CN(C1CCC(F)(F)CC1)C(=O)N3` [Synthesis Example 407, N-Cyclopropyl-3-(4,4-difluorocyclohexyl)-8-hydroxy-5-neopentyl-2,6-dioxo-1,2,3,4,5,6-hexahydropyrazolo[1,5-a:3,4-d′]dipyrimidine-7-carboxamide], the pIC50 was 8.91.

On to `CC(C)Cn1c(=O)c(C(=O)NC2CC2)c(O)n2ncc(/C=C/C(=O)N3CCOC[C@H]3C(F)(F)F)c12` [compound 534, (S,E)-N-Cyclopropyl-7-hydroxy-4-isobutyl-5-oxo-3-(3-oxo-3-(3-(trifluoromethyl)morpholino)prop-1-en-1-yl)-4,5-dihydropyrazolo[1,5-a]pyrimidine-6-carboxamide], for which the pIC50 is 9.06.

On to `CC(C)(C)Cn1c(=O)c(C(=O)NC2CC2)c(O)n2nc(-c3cccnc3C(F)F)cc12` [Synthesis Example 297, N-Cyclopropyl-2-(2-(difluoromethyl)pyridin-3-yl)-7-hydroxy-4-neopentyl-5-oxo-4,5-dihydropyrazolo[1,5-a]pyrimidine-6-carboxamide], for which the pIC50 was 8.48.

On to `CC(C)Cn1c(=O)c(C(=O)NC2CC2)c(O)n2ncc(/C=C/C(=O)N3CCC(OC4CCOCC4)CC3)c12` [compound 478, (E)-N-Cyclopropyl-7-hydroxy-4-isobutyl-5-oxo-3-(3-oxo-3-(4-((tetrahydro-2H-pyran-4-yl)oxy)piperidin-1-yl)prop-1-en-1-yl)-4,5-dihydropyrazolo[1,5-a]pyrimidine-6-carboxamide], for which the pIC50 is 9.02.

`CC(C)(C)Cn1c(=O)c(C(=O)NC2CC2)c(O)n2nc(-c3cnccn3)cc12` [Synthesis Example 302, N-Cyclopropyl-7-hydroxy-4-neopentyl-5-oxo-2-(pyrazin-2-yl)-4,5-dihydropyrazolo[1,5-a]pyrimidine-6-carboxamide]: the pIC50 is 8.57.

For the compound `CCOc1cnc(Nc2cc3n(CC(C)(C)C)c(=O)c(C(=O)NC4CC4)c(O)n3n2)cn1` [Synthesis Example 338, N-Cyclopropyl-2-((5-ethoxypyrazin-2-yl)amino)-7-hydroxy-4-neopentyl-5-oxo-4,5-dihydropyrazolo[1,5-a]pyrimidine-6-carboxamide], the pIC50 was 8.56.

For `Nc1nn2c(O)c(C(=O)NC3CC3)c(=O)n(CC3CC3)c2c1/C=C/C(=O)N1CCC(F)(F)CC1` [Synthesis Example 420, (E)-2-Amino-N-cyclopropyl-4-(cyclopropylmethyl)-3-(3-(4,4-difluoropiperidin-1-yl)-3-oxoprop-1-en-1-yl)-7-hydroxy-5-oxo-4,5-dihydropyrazolo[1,5-a]pyrimidine-6-carboxamide hydrochloride], the pIC50 is 9.12.

As to `CC(C)Cn1c(=O)c(C(=O)NC2CC2)c(O)n2ncc(/C=C/C(=O)N3CCC[C@@H]3c3ccccc3)c12` [compound 607, (R,E)-N-Cyclopropyl-7-hydroxy-4-isobutyl-5-oxo-3-(3-oxo-3-(2-phenylpyrrolidin-1-yl)prop-1-en-1-yl)-4,5-dihydropyrazolo[1,5-a]pyrimidine-6-carboxamide], the pIC50 was 8.78.

The assay is the same for the next values; noted with them: sepiapterin absorbance, Table 41, read-out: concentration at 50% inhibition of human SPR (IC50).
In the case of `CC(C)Cn1c(=O)c(C(=O)NC2CC2)c(O)n2ncc(/C=C/C(=O)N3CCc4cncnc43)c12` [Synthesis Example 724, (E)-N-Cyclopropyl-3-(3-(5,6-dihydro-7H-pyrrolo[2,3-d]pyrimidin-7-yl)-3-oxoprop-1-en-1-yl)-7-hydroxy-4-isobutyl-5-oxo-4,5-dihydropyrazolo[1,5-a]pyrimidine-6-carboxamide], the pIC50 was 8.99.
